Numbering of substitutions follows the chain as printed.
Columns and labels:
Assay in all cases: E. coli hemG growth inhibition by herbicide, AtPPO1 variant
Type in all cases: cell-based
Conditions in all cases: read-out: percentage growth inhibition
AtPPO1 G481N = biological target: T1, AtPPO1 G481N (Arabidopsis thaliana, UniProt P55826, G481N)
T1 construct: expressed in transfected cells; host or cells: E. coli BL21(DE3) hemG, pET24a plasmid
T1 sequence (P55826 35-537 G481N): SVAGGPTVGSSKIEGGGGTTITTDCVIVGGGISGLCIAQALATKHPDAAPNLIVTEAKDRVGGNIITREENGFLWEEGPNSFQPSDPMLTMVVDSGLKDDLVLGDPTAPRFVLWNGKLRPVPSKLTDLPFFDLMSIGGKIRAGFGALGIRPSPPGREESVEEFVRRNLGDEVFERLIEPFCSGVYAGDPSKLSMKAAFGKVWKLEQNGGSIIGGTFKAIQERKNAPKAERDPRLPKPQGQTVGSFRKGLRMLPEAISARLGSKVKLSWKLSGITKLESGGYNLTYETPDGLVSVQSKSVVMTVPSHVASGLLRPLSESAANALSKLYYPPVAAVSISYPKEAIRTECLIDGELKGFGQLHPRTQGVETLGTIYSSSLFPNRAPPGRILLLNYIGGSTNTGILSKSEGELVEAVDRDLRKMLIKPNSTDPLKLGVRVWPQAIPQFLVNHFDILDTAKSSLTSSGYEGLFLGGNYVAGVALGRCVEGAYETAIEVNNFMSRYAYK
Procedure, shortened: (§1)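 E. coli BL21(DE3) ΔhemG::CmR complemented by AtPPO1 variants (pET24a, T7, E. coli codon-optimised); TB + 0.1 mM IPTG, 1:100 inoculum; 6.25 ppm herbicide 0/E or 0.78 ppm herbicide B vs DMSO; 24 h, 37° C, 250 rpm; OD600 at 24 h → % growth inhibition.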

AtPPO1 G481D = biological target: T2, AtPPO1 G481D (Arabidopsis thaliana, UniProt P55826, G481D)
T2 construct: expressed in transfected cells; host or cells: E. coli BL21(DE3) hemG, pET24a plasmid
T2 sequence (P55826 35-537 G481D): T1 sequence (P55826 35-537 G481N) with N447D
Procedure, shortened: as §1

AtPPO1 F214Y = biological target: T3, AtPPO1 F214Y (Arabidopsis thaliana, UniProt P55826, F214Y)
T3 construct: expressed in transfected cells; host or cells: E. coli BL21(DE3) hemG (hemG replaced by CmR), pET24a plasmid
T3 sequence (P55826 35-537 F214Y): T1 sequence (P55826 35-537 G481N) with F180Y, N447G
Procedure, shortened: as §1

AtPPO1 L479M = biological target: T4, AtPPO1 L479M (Arabidopsis thaliana, UniProt P55826, L479M)
T4 construct: expressed in transfected cells; host or cells: E. coli BL21(DE3) hemG, pET24a plasmid
T4 sequence (P55826 35-537 L479M): T1 sequence (P55826 35-537 G481N) with L445M, N447G
Procedure, shortened: as §1

CC(C)N(C)S(=O)(=O)NC(=O)c1cc(-n2c(=O)cc(C(F)(F)F)n(C)c2=O)c(F)cc1Cl [Herbicide E, saflufenacil]
inhibition at 6.25 ppm (AtPPO1 G481N): 4% | inhibition at 6.25 ppm (AtPPO1 G481D): 16% | inhibition at 6.25 ppm (AtPPO1 F214Y): 63% | inhibition at 6.25 ppm (AtPPO1 L479M): 28%

C#CCN1C(=O)C(F)(F)Oc2cc(F)c(-n3c(=O)n(C)c(=S)n(C)c3=O)cc21 [Herbicide B, trifludimoxazin]
inhibition at 0.78 ppm (AtPPO1 G481N): 44% | inhibition at 0.78 ppm (AtPPO1 G481D): 40% | inhibition at 0.78 ppm (AtPPO1 F214Y): 26% | inhibition at 0.78 ppm (AtPPO1 L479M): 29%

CCOC(=O)[C@]1(C)CC(c2cc(-n3c(=O)n(C)c(=S)n(C)c3=O)c(F)cc2Cl)=NO1 [Herbicide D, ethyl (5S)-3-[2-chloro-5-(3,5-dimethyl-2,6-dioxo-4-thioxo-1,3,5-triazinan-1-yl)-4-fluoro-phenyl]-5-methyl-4H-isoxazole-5-carboxylate]
inhibition at 6.25 ppm (AtPPO1 G481N): 14% | inhibition at 6.25 ppm (AtPPO1 G481D): 20% | inhibition at 6.25 ppm (AtPPO1 F214Y): 34% | inhibition at 6.25 ppm (AtPPO1 L479M): 4%
